How the values were obtained:
Assay type in all cases: in vivo
setaria glauca L. = assay: herbicidal activity, soil treatment one day after sowing
Gladiolus sp. = assay: activity of PA 106 on useful species (treatment after unearthing the tubers)
Description: (§1) Method of evaluation of the results (of tests):
(§2) 0 = no activity and no difference with respect to the control;
(§3) 1 slight differences with respect to the control;
(§4) 3 = considerable activity with damages that definitely impair the further development of most of the small plants; an activity degree already useful for practical purposes;
(§5) 4 = maximum of activity with lack of germination or total containment of the small plants in the emerging stage.
(§6) In the case of an intermediate activity between two classes of the scale, both values are recorded with the one which corresponds to the preeminent activity preceding.
(§7) TABLE 3 reports data on the herbicidal activity against infesting herbs, while TABLE 4 reports data concerning the activity on useful species of agricultural cultivations. These tables employ the criterion explained previously. The product was spread on the soil one day after sowing, in quantities of 1, 3, 6, 8, 10, 12 and 14 kg/ha.
In the case of gladiolus, the treatment was carried out after unearthing the tubers.

[1] = test system: triticum vulgare L. (wheat); assay: activity on agrarian species, soil treatment one day after sowing
Procedure, shortened: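 Wheat effects rated against untreated control on a 0 (no difference) to 4 (no germination or emergence fully contained) scale, with two-class scores for intermediate activity. Application was to soil one day post-sowing at rates of 1, 3, 6, 8, 10, 12 and 14 kg/ha.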

Digitaria sanguinalis L. = assay: herbicidal activity of PA 106 against infesting herbs
Description: as §1, §2, §3, §4, §5, §6, §7

Portulaca oleracea L. = assay: as above
Description: as §1, §2, §3, §4, §5, §6, §7

Papmer rhoeas L. = assay: as above
Description: as §1, §2, §3, §4, §5, §6, §7

[2] = test system: Panichum Dichotomi florum M.; assay: as above
Description: as §1, §2, §3, §4, §5, §6, §7

Sorghum sp. = assay: as above
Description: as §1, §2, §3, §4, §5, §6, §7

oryza sativa L. (rice) = assay: activity on agrarian species, soil treatment one day after sowing
Procedure, shortened: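 Activity scored 0 (no difference from control) to 4 (no germination or total containment of emerging plants), intermediates given both classes. Product spread on soil one day after sowing rice, at rates of 1, 3, 6, 8, 10, 12 and 14 kg/ha.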

zea mais L. (corn) = assay: as above
Procedure, shortened: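 Crop injury rated 0–4 relative to control, from no difference up to complete germination failure or arrest of emerging plants; in-between responses get both values. Product spread on soil at 1–14 kg/ha (1, 3, 6, 8, 10, 12, 14) one day post-sowing.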

[3] = test system: echinocloa crus-galli R.S.; assay: herbicidal activity, soil treatment one day after sowing
[4] = test system: beta vulgaris L. (sugar-beet); assay: activity on agrarian species, soil treatment one day after sowing
Description: The infesting species and the agrarian species have been indicated in Table 1 by letters, as follows:
H = beta vulgaris L. (sugar-beet)
as §1, §2, §3, §4, §5, §6
TABLE 2 reports the activity data of other compounds that fall within the class which is the object of this invention.
as §7

rice = assay: plot-test in open field planted with rice; settings: even at 30 kg/ha of active substance
[5] = test system: amaranthus retroflexus L.; assay: herbicidal activity, soil treatment one day after sowing
chenopodium album L. = assay: as above

## CCC(C)N(C(=O)c1ccc(Cl)c(Cl)c1)C(C)CC (centres unmarked) [PA106, 3,4-dichloro-N,N-di-sec.butyl-benzamide]
Setaria glauca L.; 1 kg/ha
  herbicidal activity, Table 3: 2/3
Setaria glauca L.; 3 kg/ha
  herbicidal activity, Table 3: 3
Setaria glauca L.; 4 kg/ha
  activity on E, 0-4 scale: 3-4
Setaria glauca L.; 6 kg/ha
  activity on E, 0-4 scale: 4
  herbicidal activity, Table 3: 4
Setaria glauca L.; 8 kg/ha
  herbicidal activity, Table 3: 4
Setaria glauca L.; 10 kg/ha
  herbicidal activity, Table 3: 4
Setaria glauca L.; 12 kg/ha
  herbicidal activity, Table 3: 4
Setaria glauca L.; 14 kg/ha
  herbicidal activity, Table 3: 4
Gladiolus sp.; 1 kg/ha
  activity on useful species, Table 4: 0
Gladiolus sp.; 3 kg/ha
  activity on useful species, Table 4: 0
Gladiolus sp.; 6 kg/ha
  activity on useful species, Table 4: 0
Gladiolus sp.; 8 kg/ha
  activity on useful species, Table 4: 0
Gladiolus sp.; 10 kg/ha
  activity on useful species, Table 4: 0
Gladiolus sp.; 12 kg/ha
  activity on useful species, Table 4: 0
Gladiolus sp.; 14 kg/ha
  activity on useful species, Table 4: 0
[1]; 1 kg/ha
  activity on useful species, Table 4: 0
[1]; 3 kg/ha
  activity on useful species, Table 4: 0
[1]; 6 kg/ha
  activity on N, 0-4 scale: 0
  activity on useful species, Table 4: 0
[1]; 8 kg/ha
  activity on useful species, Table 4: 0/1
[1]; 10 kg/ha
  activity on useful species, Table 4: 0/1
[1]; 12 kg/ha
  activity on useful species, Table 4: 1
[1]; 14 kg/ha
  activity on useful species, Table 4: 1
Digitaria sanguinalis L.; 1 kg/ha
  herbicidal activity, Table 3: 2/3
Digitaria sanguinalis L.; 3 kg/ha
  herbicidal activity, Table 3: 4/3
Digitaria sanguinalis L.; 6 kg/ha
  herbicidal activity, Table 3: 4
Digitaria sanguinalis L.; 8 kg/ha
  herbicidal activity, Table 3: 4
Digitaria sanguinalis L.; 10 kg/ha
  herbicidal activity, Table 3: 4
Digitaria sanguinalis L.; 12 kg/ha
  herbicidal activity, Table 3: 4
Digitaria sanguinalis L.; 14 kg/ha
  herbicidal activity, Table 3: 4
Portulaca oleracea L.; 1 kg/ha
  herbicidal activity, Table 3: 0
Portulaca oleracea L.; 3 kg/ha
  herbicidal activity, Table 3: 1/2
Portulaca oleracea L.; 6 kg/ha
  herbicidal activity, Table 3: 3
Portulaca oleracea L.; 8 kg/ha
  herbicidal activity, Table 3: 3/4
Portulaca oleracea L.; 10 kg/ha
  herbicidal activity, Table 3: 4
Portulaca oleracea L.; 12 kg/ha
  herbicidal activity, Table 3: 4
Portulaca oleracea L.; 14 kg/ha
  herbicidal activity, Table 3: 4
Papmer rhoeas L.; 1 kg/ha
  herbicidal activity, Table 3: 0
Papmer rhoeas L.; 3 kg/ha
  herbicidal activity, Table 3: 1
Papmer rhoeas L.; 6 kg/ha
  herbicidal activity, Table 3: 2
Papmer rhoeas L.; 8 kg/ha
  herbicidal activity, Table 3: 3
Papmer rhoeas L.; 10 kg/ha
  herbicidal activity, Table 3: 4
Papmer rhoeas L.; 12 kg/ha
  herbicidal activity, Table 3: 4
Papmer rhoeas L.; 14 kg/ha
  herbicidal activity, Table 3: 4
[2]; 1 kg/ha
  herbicidal activity, Table 3: 2
[2]; 3 kg/ha
  herbicidal activity, Table 3: 5/4
[2]; 6 kg/ha
  herbicidal activity, Table 3: 4
[2]; 8 kg/ha
  herbicidal activity, Table 3: 4
[2]; 10 kg/ha
  herbicidal activity, Table 3: 4
[2]; 12 kg/ha
  herbicidal activity, Table 3: 4
[2]; 14 kg/ha
  herbicidal activity, Table 3: 4
Sorghum sp.; 1 kg/ha
  herbicidal activity, Table 3: 1
Sorghum sp.; 3 kg/ha
  herbicidal activity, Table 3: 3
Sorghum sp.; 6 kg/ha
  herbicidal activity, Table 3: 4
Sorghum sp.; 8 kg/ha
  herbicidal activity, Table 3: 4
Sorghum sp.; 10 kg/ha
  herbicidal activity, Table 3: 4
Sorghum sp.; 12 kg/ha
  herbicidal activity, Table 3: 4
Sorghum sp.; 14 kg/ha
  herbicidal activity, Table 3: 4
Oryza sativa L. (rice); 1 kg/ha
  activity on useful species, Table 4: 0
Oryza sativa L. (rice); 3 kg/ha
  activity on useful species, Table 4: 0
Oryza sativa L. (rice); 6 kg/ha
  activity on P, 0-4 scale: 0
  activity on useful species, Table 4: 0
Oryza sativa L. (rice); 8 kg/ha
  activity on useful species, Table 4: 0
Oryza sativa L. (rice); 10 kg/ha
  activity on useful species, Table 4: 0
Oryza sativa L. (rice); 12 kg/ha
  activity on useful species, Table 4: 0
Oryza sativa L. (rice); 14 kg/ha
  activity on useful species, Table 4: 0/1
Zea mais L. (corn); 1 kg/ha
  activity on useful species, Table 4: 0
Zea mais L. (corn); 3 kg/ha
  activity on useful species, Table 4: 0
Zea mais L. (corn); 6 kg/ha
  activity on O, 0-4 scale: 0
  activity on useful species, Table 4: 0
Zea mais L. (corn); 8 kg/ha
  activity on useful species, Table 4: 0
Zea mais L. (corn); 10 kg/ha
  activity on useful species, Table 4: 0
Zea mais L. (corn); 12 kg/ha
  activity on useful species, Table 4: 0/1
Zea mais L. (corn); 14 kg/ha
  activity on useful species, Table 4: 1
[3]; 1 kg/ha
  herbicidal activity, Table 3: 0/1
[3]; 2 kg/ha
  activity on D, 0-4 scale: 2
[3]; 3 kg/ha
  herbicidal activity, Table 3: 3
[3]; 4 kg/ha
  activity on D, 0-4 scale: 3-4
[3]; 6 kg/ha
  activity on D, 0-4 scale: 4
  herbicidal activity, Table 3: 4
[3]; 8 kg/ha
  herbicidal activity, Table 3: 4
[3]; 10 kg/ha
  herbicidal activity, Table 3: 4
[3]; 12 kg/ha
  herbicidal activity, Table 3: 4
[3]; 14 kg/ha
  herbicidal activity, Table 3: 4
[4]; 1 kg/ha
  activity on useful species, Table 4: 0
[4]; 3 kg/ha
  activity on useful species, Table 4: 0
[4]; 6 kg/ha
  activity on H, 0-4 scale: 1
  activity on useful species, Table 4: 1
[4]; 8 kg/ha
  activity on useful species, Table 4: 1
[4]; 10 kg/ha
  activity on useful species, Table 4: 1/2
[4]; 12 kg/ha
  activity on useful species, Table 4: 2
[4]; 14 kg/ha
  activity on useful species, Table 4: 2/3
rice
  phytotoxic effects on the rice: no phytotoxic effects
[5]; 1 kg/ha
  herbicidal activity, Table 3: 0
[5]; 2 kg/ha
  activity on A, 0-4 scale: 1
[5]; 3 kg/ha
  herbicidal activity, Table 3: 1/2
[5]; 4 kg/ha
  activity on A, 0-4 scale: 2
[5]; 6 kg/ha
  activity on A, 0-4 scale: 3
  herbicidal activity, Table 3: 3
[5]; 8 kg/ha
  herbicidal activity, Table 3: 4/3
[5]; 10 kg/ha
  herbicidal activity, Table 3: 4
[5]; 12 kg/ha
  herbicidal activity, Table 3: 4
[5]; 14 kg/ha
  herbicidal activity, Table 3: 4
Chenopodium album L.; 1 kg/ha
  herbicidal activity, Table 3: 0
Chenopodium album L.; 2 kg/ha
  activity on C, 0-4 scale: 0-1
Chenopodium album L.; 3 kg/ha
  herbicidal activity, Table 3: 1
Chenopodium album L.; 4 kg/ha
  activity on C, 0-4 scale: 1-2
Chenopodium album L.; 6 kg/ha
  activity on C, 0-4 scale: 3
  herbicidal activity, Table 3: 3
Chenopodium album L.; 8 kg/ha
  herbicidal activity, Table 3: 2/3
Chenopodium album L.; 10 kg/ha
  herbicidal activity, Table 3: 3
Chenopodium album L.; 14 kg/ha
  herbicidal activity, Table 3: 3/4

Source: patent US3982931A, “N,N-di-sec.butyl-benzamide herbicides” (priority 1967, dated 1976)
